Experimental data published in patent publication US20260144879A1, “ANTI-VIRAL AND HEPATIC-TARGETED DRUGS” (AI-BIOPHARMA, priority 2019, published 2026).

Key:
[1] = system: HBV (genotype D, serotype ayw, Galibert's strain); experiment: Quantification of virion associated secreted HBV DNA in supernatant of HBV-infected differentiated HepaRG (dHepaRG) cells by qPCR, % of replication vs DMSO; type: cell-based, hepatitis B virus; settings: 1 μM compound, 7 days treatment, DMSO = 100%; for activity at 1 µM: Hepatitis B virus, HepaRG, 168 h, read-out: dHepaRG HBV % of replication at 1 μM compared to DMSO
Description: (§1) From Methods in Lucifora J. et al. (Direct antiviral properties of TLR ligands against HBV replication in immune-competent hepatocytes, Science Scientific Reports, 2018, 8:5390): • 1) HepaRG cells were cultured, as described previously by Gripon P. et al. (Infection of a human hepatoma cell line by hepatitis B virus. Proc Natl Acad Sci USA, 2002, 99, p 15655-15660) on pages 15655 and 15656, in Williams E medium supplemented with 10% fetal calf serum, 50 U penicillin/streptomycin (Gibco-Invitrogen) ml^−1, […] ml^−1 and 5×10^−7 M hydrocortisone hemisuccinate (Roche Diagnostics and Boehringer Mannheim, respectively). The cell cultures were maintained in a 5% CO2 atmosphere at 37° C. During the proliferation phase, culture medium was renewed every 2 days. For differentiation and infection, cells were maintained for 2 weeks in standard medium and then for at least 2 more weeks in medium supplemented with 1.8-2.0% DMSO (Sigma). • 2) Primary Human Hepatocytes (PHH) were freshly prepared from human liver resection as previously described by Lecluyse, E. L. & Alexandre, E. (Isolation and culture of primary hepatocytes from resected human liver tissue. Methods Mol Biol, 2010, 640, p 57-82, https://doi.org/10.1007/978-1-60761-688-7_3) on page 63 paragraph 3. “Methods” from section 3.1. through 3.6.2. page 77. All experimental procedures were conducted in conformity with French laws and regulations and were approved by the National Ethics Committee. • 3) Cell viability was measured by both neutral red and MTS (CellTiter 96 Aqueous One Solution cell proliferation assay; Promega) tests. • 4) HBV inoculum (genotype D, serotype ayw, Galibert's strain referred as NC_003977.2 at NCBI) was prepared from HepAD38 (see Ladner, S. K. et al., Inducible expression of human hepatitis B virus (HBV) in stably transfected hepatoblastoma cells: a novel system for screening potential inhibitors of HBV replication. Antimicrob Agents Chemother, 1997, 41, p 1715-1720) supernatants by polyethylene-glycol-MW-8000 (PEG8000, SIGMA) precipitation (8% final) as previously described by Luangsay, S. et al. (Early inhibition of hepatocyte innate responses by hepatitis B virus. J Hepatol, 2015, 63, p 1314-1322, https://doi.org/10.1016/j.jhep.2015.07.014).
(§2) Viral stocks with titer reaching at least 1×10^10 viral genome equivalent (vge)/mL were tested endotoxin free.
(§3) Differentiated HepaRG (dHepaRG) or PHH were infected by HBV at a multiplicity of infection of 100-200 vge/cell in culture medium containing 4% PEG 8000 (Sigma) for 16 h at 37° C. in 12- or six-well plates. At the end of the incubation period, cells were washed once with medium and then cultured in Williams E medium containing DMSO as indicated. In general infection was left for 7 days before any treatment was started, to allow replication reaching its maximum. • 5) Infected cell treatment with compounds of interest: • 5a: After 7 days of infection with the virus (day 0 to day 7), the dHepaRG cells were treated (3 treatments: day 7, day 10 and day 12) with a […] of the tested compound (diluted with sterile water from a 10 mM stock DMSO solution) or DMSO as reference negative control for 7 more days. • 5b: After 4 days of infection with the virus (day 0 to day 4), the PHH cells were treated (3 treatments: day 4, day 7 and day 9) with a […] of the tested compound (diluted with sterile water from a 10 mM stock DMSO solution) for 7 more days. • 6) Quantification of virion associated secreted HBV DNA in cell culture supernatant:
(§4) At the end of the experiment (7 days treatment) the supernatant of infected and treated cells (either dHepaRG or PHH or others) is collected. It is diluted 1/4 into sterile water (molecular biology quality) then treated for 30 minutes with RNAse (10 unit) and DNAse (10 unit) to remove non encapsidated material. […]

[2] = system: HBV (genotype D, serotype ayw, Galibert's strain); experiment: Quantification of virion associated secreted HBV DNA in supernatant of HBV-infected Primary Human Hepatocytes (PHH) by qPCR, % of replication vs DMSO; type: cell-based, hepatitis B virus; settings: 1 μM compound, 7 days treatment, DMSO = 100%; for PHH HBV % of replication at 1 μM compared to DMSO: (*) n = 1; for activity at 1 µM: Hepatitis B virus, Hepatocyte, 168 h, (*) n = 1, read-out: PHH HBV % of replication at 1 μM compared to DMSO
Description: as §1, §2, §3, §4

HepaRG cells = experiment: Cell viability by neutral red and MTS (CellTiter 96 Aqueous One Solution) tests, HepaRG cells; type: cell-based, human; settings: dHepaRG cells, CellTiter-Glo; read-out: Cytotoxicity (CC50 in μM) in dHepaRG CellTiter-Glo
Description: (§5) From Methods in Lucifora J. et al. (Direct antiviral properties of TLR ligands against HBV replication in immune-competent hepatocytes, Science Scientific Reports, 2018, 8:5390): • 1) HepaRG cells were cultured, as described previously by Gripon P. et al. (Infection of a human hepatoma cell line by hepatitis B virus. Proc Natl Acad Sci USA, 2002, 99, p 15655-15660) on pages 15655 and 15656, in Williams E medium supplemented with 10% fetal calf serum, 50 U penicillin/streptomycin (Gibco-Invitrogen) ml^−1, […] ml^−1 and 5×10^−7 M hydrocortisone hemisuccinate (Roche Diagnostics and Boehringer Mannheim, respectively). The cell cultures were maintained in a 5% CO2 atmosphere at 37° C. During the proliferation phase, culture medium was renewed every 2 days. For differentiation and infection, cells were maintained for 2 weeks in standard medium and then for at least 2 more weeks in medium supplemented with 1.8-2.0% DMSO (Sigma). • 2) Primary Human Hepatocytes (PHH) were freshly prepared from human liver resection as previously described by Lecluyse, E. L. & Alexandre, E. (Isolation and culture of primary hepatocytes from resected human liver tissue. Methods Mol Biol, 2010, 640, p 57-82, https://doi.org/10.1007/978-1-60761-688-7_3) on page 63 paragraph 3. “Methods” from section 3.1. through 3.6.2. page 77. […] K. et al., Inducible expression of human hepatitis B virus (HBV) in stably transfected hepatoblastoma cells: a novel system for screening potential inhibitors of HBV replication. Antimicrob Agents Chemother, 1997, 41, p 1715-1720) supernatants by polyethylene-glycol-MW-8000 (PEG8000, SIGMA) precipitation (8% final) as previously described by Luangsay, S. et al. (Early inhibition of hepatocyte innate responses by hepatitis B virus. J Hepatol, 2015, 63, p 1314-1322, https://doi.org/10.1016/j.jhep.2015.07.014).

[3] = as above; type: cell-based, human; settings: human, differentiated HepaRG (dHepaRG) cells, CellTiter-Glo, read-out: Cytotoxicity (CC50 in μM) in dHepaRG CellTiter-Glo
Description: as §5

SMILES	dHepaRG HBV % of replication at 1 μM compared to DMSO [1]	PHH HBV % of replication at 1 μM compared to DMSO [2]	CC50 (HepaRG cells)	activity at 1 µM [1]	activity at 1 µM [2]	CC50 [3]
CC(C)OC(=O)[C@H](C)N[P@](=O)(CO[C@H](C)Cn1cnc2c(N)ncnc21)Oc1ccccc1 [TAF]	++++ (++++ ≤ 30%)	++++ (++++ ≤ 30%)	< 10 µM			
C[C@H](Cn1cnc2c(N)ncnc21)OCP(=O)(O)O [TFV]	++++ (++++ ≤ 30%)	++++ (++++ ≤ 30%)	> 50 µM			
CC(C)OC(=O)CC1COP(=O)(CO[C@H](C)Cn2cnc3c(N(C(=O)c4ccccc4)C(=O)c4ccccc4)ncnc32)OC1 (stereo partly drawn) [Example 20, (R)-isopropyl 2-(2-(((1-(6-(N-benzoylbenzamido)-9H-purin-9-yl)propan-2-yl)oxy)methyl)-2-oxido-1,3,2-dioxaphosphinan-5-yl)acetate]				≤ 30%	≤ 30%	> 50 µM
CC(C)OC(=O)CC1COP(=O)(CO[C@H](C)Cn2cnc3c(N)ncnc32)OC1 (stereo partly drawn) [Example 3, (R)-isopropyl 2-(2-(((1-(6-amino-9H-purin-9-yl)propan-2-yl)oxy)methyl)-2-oxo-1,3,2-dioxaphosphinan-5-yl)acetate]				≤ 30%	≤ 30%	> 50 µM
CC(C)OC(=O)CC1COP(=O)(CO[C@H](C)Cn2cnc3c(NC(=O)c4ccccc4)ncnc32)OC1 (stereo partly drawn) [Example 21, (R)-isopropyl 2-(2-(((1-(6-benzamido-9H-purin-9-yl)propan-2-yl)oxy)methyl)-2-oxo-1,3,2-dioxaphosphinan-5-yl)acetate]				≤ 30%	≤ 30%	> 50 µM
